Laboratory results taken from publication PMC12528448, “Resistance to CDK7 inhibitors directed by acquired mutation of a conserved residue in cancer cells” (The EMBO Journal, 2025).
Values joined by “and” are separate entries in the source; they are usually repeats but may differ in a detail not shown here. Identical values can stand only once.

What was measured:
Type in all cases: cell-based, human
LNCaP cells = assay: Growth assay (SRB), LNCaP
Description: (§1) To determine the IC50 of drug treatments on growth, cells were seeded in 96-well culture plates. Two days after seeding, the cells were treated with increasing concentrations of drugs and incubated for 4 days. Cell number was determined using the SRB assay (Skehan et al, [1990]), and IC50 values were calculated using non-linear regression curve fitting in GraphPad Prism v10. For all other growth experiments, cells were seeded into 96-well plates, and appropriate drugs were added 2 days after seeding. Cells were then incubated in an IncuCyte Zoom live-cell imager, with cell confluency measured every 6 h. Cell doubling times were determined by non-linear curve fitting (exponential growth equation) in GraphPad Prism v10.

22Rv1-CDK7-D97N cells = assay: Growth assay (SRB), 22Rv1 CDK7-D97N knock-in pool; details: 22Rv1 CDK7 D99N
Description: as §1
(§2) Alt-R^TM S.p. Cas9 nuclease V3, Alt-R CRISPR-Cas9 crRNA, TracrRNA and the donor templates were obtained from Integrated DNA Technologies. […] Cells were treated with 0.7 µM of Alt-R HDR Enhancer V2 to improve HRD efficiency. Sequences of the CRISPRs in the crRNA and the donor templates are shown in the Reagents and tools table. Donor templates were designed to include non-coding substitutions to aid genome DNA PCR for identifying knock-in events and to facilitate cloning; these substitutions are noted in the Reagents and tools table.

MCF7 cells = assay: Growth assay (SRB), MCF7; details: for % Growth: biological reps
Outline: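 SRB assays: cells treated 2 days post-seeding with increasing drug concentrations for 4 days; IC50 by non-linear regression. IncuCyte assay: drugs added 2 days post-seeding, confluency imaged every 6 h; doubling times from exponential growth fits.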

MCF7-CDK7-D97N cells = assay: Growth assay (SRB), MCF7 CDK7-D97N knock-in; details: for % Growth: MCF7 CDK7 D99N, biological reps
Description: as §1, §2

22Rv1-SamR cells = assay: Growth assay (SRB), Samuraciclib-resistant 22Rv1; details: for % Growth: 22Rv1 SamR, 4 days, biological reps
Description: as §1

22Rv1 cells = assay: Growth assay (SRB), 22Rv1
Description: as §1

For `CC(C)c1cnn2c(NCc3ccccc3-n3cccn3)nc(OC3CCCNC3)nc12` (centres unmarked) [LDC4297], the “% Growth” value (LNCaP cells; Log10 Conc. (nM) 0.09) was 103.68% and 97.62%, the “% Growth” value (LNCaP cells; Log10 Conc. (nM) 0.69) was 77.76% and 65.52% and the “% Growth” value (LNCaP cells; Log10 Conc. (nM) 1.29) was 48.12% and 34.31%. For the same compound, the “% Growth” value (LNCaP cells; Log10 Conc. (nM) 3.10) was 4.14% and -5.07%, the “% Growth” value (LNCaP cells; Log10 Conc. (nM) 3.70) was -12.69% and -19.92% and the “% Growth” value (LNCaP cells; Log10 Conc. (nM) 4.30) was -12.08% and -21.22%. The “% Growth” value (LNCaP cells; Log10 Conc. (nM) -0.52) was 92.16% and 87.19%, the “% Growth” value (22Rv1-CDK7-D97N cells; Log10 Conc. (nM) 0.09) was 99.08% and 97.65% and the “% Growth” value (22Rv1-CDK7-D97N cells; Log10 Conc. (nM) 0.69) was 98.24% and 92.35%. The “% Growth” value (22Rv1-CDK7-D97N cells; Log10 Conc. (nM) 1.29) was 97.25% and 79.61%, the “% Growth” value (22Rv1-CDK7-D97N cells; Log10 Conc. (nM) 2.49) was 79.12% and 58.88% and the “% Growth” value (22Rv1-CDK7-D97N cells; Log10 Conc. (nM) 3.10) was 40.19% and 24.40%. For the same compound, the “% Growth” value (22Rv1-CDK7-D97N cells; Log10 Conc. (nM) 4.30) was -8.93% and -12.96%, the “% Growth” value (22Rv1-CDK7-D97N cells; Log10 Conc. (nM) -0.52) was 101.69% and 97.12% and the IC50 (MCF7 cells; 4 days, SRB) was 7.3 nM. The “% Growth” value (MCF7 cells; Log10 Conc. (nM) 0.09, 4 days) was 91.12% and 94.99% and 92.39%, the “% Growth” value (MCF7 cells; Log10 Conc. (nM) 0.69, 4 days) was 52.29% and 66.02% and 70.05% and the “% Growth” value (MCF7 cells; Log10 Conc. (nM) 1.29, 4 days) was 18.87% and 28.85% and 28.07%. For the same compound, the “% Growth” value (MCF7 cells; Log10 Conc. (nM) 2.49, 4 days) was 9.82% and 18.59% and 16.86%, the “% Growth” value (MCF7 cells; Log10 Conc. (nM) 3.70, 4 days) was -7.82% and -0.67% and -1.06% and the “% Growth” value (MCF7 cells; Log10 Conc. (nM) 4.30, 4 days) was -10.31% and -1.91% and -1.69%. The “% Growth” value (MCF7 cells; Log10 Conc. (nM) -0.52, 4 days) was 95.85% and 97.88% and 93.10%, the “Resistance (Fold)” value (MCF7-CDK7-D97N cells; MCF7-CDK7-D97N vs MCF7 WT) was 38.8 fold and the IC50 (MCF7-CDK7-D97N cells; MCF7-CDK7-D97N, 4 days, SRB) was 284 nM. The “% Growth” value (MCF7-CDK7-D97N cells; Log10 Conc. (nM) 0.09, 4 days) was 97.54% and 102.97% and 111.53%, the “% Growth” value (MCF7-CDK7-D97N cells; Log10 Conc. (nM) 0.69, 4 days) was 89.88% and 95.95% and 106.23% and the “% Growth” value (MCF7-CDK7-D97N cells; Log10 Conc. (nM) 1.29, 4 days) was 86.58% and 89.18% and 107.98%. For the same compound, the “% Growth” value (MCF7-CDK7-D97N cells; Log10 Conc. (nM) 1.89, 4 days) was 78.14% and 75.55% and 98.88%, the “% Growth” value (MCF7-CDK7-D97N cells; Log10 Conc. (nM) 2.49, 4 days) was 36.43% and 41.92% and 46.72% and the “% Growth” value (MCF7-CDK7-D97N cells; Log10 Conc. (nM) 3.10, 4 days) was 15.57% and 25.31% and 26.65%. For the same compound, the “% Growth” value (MCF7-CDK7-D97N cells; Log10 Conc. (nM) -0.52, 4 days) was 94.29% and 106.05% and 120.50%, the “Resistance (Fold), fold increase in IC50 of 22Rv1-SamR relative to 22Rv1” value (22Rv1-SamR cells; 22Rv1-SamR vs 22Rv1) was 45 fold and the “% Growth” value (22Rv1-SamR cells; Log10 Conc. (nM) 0.09) was 97.61% and 104.31%. The “% Growth” value (22Rv1-SamR cells; Log10 Conc. (nM) 0.69) was 95.33% and 95.56%, the “% Growth” value (22Rv1-SamR cells; Log10 Conc. (nM) 1.29) was 91.02% and 93.49% and the “% Growth” value (22Rv1-SamR cells; Log10 Conc. (nM) 1.89) was 85.93% and 89.36%. For the same compound, the “% Growth” value (22Rv1-SamR cells; Log10 Conc. (nM) 2.49) was 74.46% and 80.17%, the “% Growth” value (22Rv1-SamR cells; Log10 Conc. (nM) 3.10) was 45.54% and 51.37% and the “% Growth” value (22Rv1-SamR cells; Log10 Conc. (nM) 3.70) was 16.52% and 21.74%. The “% Growth” value (22Rv1-SamR cells; Log10 Conc. (nM) 4.30) was -6.89% and -7.33%, the “% Growth” value (22Rv1-SamR cells; Log10 Conc. (nM) -0.52) was 95.69% and 97.10% and the “% Growth” value (22Rv1 cells; 22Rv1, Log10 Conc. (nM) 0.09) was 67.07% and 96.13%. The “% Growth” value (22Rv1 cells; 22Rv1, Log10 Conc. (nM) 0.69) was 66.51% and 88.13%, the “% Growth” value (22Rv1 cells; 22Rv1, Log10 Conc. (nM) 1.29) was 42.25% and 51.76% and the “% Growth” value (22Rv1 cells; 22Rv1, Log10 Conc. (nM) 1.89) was 9.89% and 17.57%. For the same compound, the “% Growth” value (22Rv1 cells; 22Rv1, Log10 Conc. (nM) 2.49) was 11.47% and 9.07%, the “% Growth” value (22Rv1 cells; 22Rv1, Log10 Conc. (nM) 3.10) was 2.69% and 4.03% and the “% Growth” value (22Rv1 cells; 22Rv1, Log10 Conc. (nM) 3.70) was -4.63% and -0.97%. For the same compound, the “% Growth” value (22Rv1 cells; 22Rv1, Log10 Conc. (nM) 4.30) was -12.52% and -9.59%, the “% Growth” value (22Rv1 cells; 22Rv1, Log10 Conc. (nM) -0.52) was 95.29% and 95.79% and the “% Growth” value (22Rv1 cells; 22Rv1, Log10 Conc. (nM) 0.09, 4 days, biological reps) was 97.43% and 97.15%. For the same compound, the “% Growth” value (22Rv1 cells; 22Rv1, Log10 Conc. (nM) 0.69, 4 days, biological reps) was 91.35% and 89.50%, the “% Growth” value (22Rv1 cells; 22Rv1, Log10 Conc. (nM) 1.29, 4 days, biological reps) was 69.89% and 67.14% and the “% Growth” value (22Rv1 cells; 22Rv1, Log10 Conc. (nM) 1.89, 4 days, biological reps) was 34.11% and 32.16%. For the same compound, the “% Growth” value (22Rv1 cells; 22Rv1, Log10 Conc. (nM) 2.49, 4 days, biological reps) was 25.80% and 22.21%, the “% Growth” value (22Rv1 cells; 22Rv1, Log10 Conc. (nM) 3.10, 4 days, biological reps) was 19.07% and 18.11% and the “% Growth” value (22Rv1 cells; 22Rv1, Log10 Conc. (nM) 3.70, 4 days, biological reps) was 12.19% and 10.17%. For the same compound, the “% Growth” value (22Rv1 cells; 22Rv1, Log10 Conc. (nM) 4.30, 4 days, biological reps) was -1.74% and -5.36% and the “% Growth” value (22Rv1 cells; 22Rv1, Log10 Conc. (nM) -0.52, 4 days, biological reps) was 96.00% and 93.75%.
